Patent US8772494B2, “N-aryl piperidine substituted biphenylcarboxamides as inhibitors of apolipoprotein b” (Janssen Pharmaceutica N.V., priority 2003, dated 2014)

Experiments:
[1] = test system: ApoB secretion, HepG2 cells; assay: Quantification of the secretion of ApoB; assay type: cell-based; details: Homo sapiens, 24 hours of incubation, secreted apoB immunoprecipitated, read-out: pIC50 values (= −log IC50 value) (converted)
Protocol: HepG2 cells were cultured in 24-well plates in MEM Rega 3 containing 10% fetal calf serum. At 70% confluency, the medium was changed and the test compound or carrier (DMSO, 0.4% final concentration) was added. After 24 hours of incubation, the medium was transferred to Eppendorf tubes and cleared by centrifugation. A sheep antibody directed against either apoB was added to the supernatant and the mixture was kept at 8° C. for 24 hours. Then, rabbit anti-sheep antibody was added and the immune complex was allowed to precipitate for 24 hours at 8° C. The immunoprecipitate was pelleted by centrifugation for 25 minutes at 1320 g and washed twice with a buffer containing 40 mM Mops, 40 mM NaH2PO4, 100 mM NaF, 0.2 mM DTT, 5 mM EDTA, 5 mM EGTA, 1% Triton-X-100, 0.5% sodium deoxycholate (DOC), 0.1% SDS, 0.2 μM leupeptin and 0.2 μM PMSF. Radioactivity in the pellet was quantified by liquid scintillation counting.
Resulting IC50 values are enumerated in Table C.1. When the calculated IC50 was below 6, not enough data points were available at the tested concentrations to calculate an IC50 value.

MTP = MTP (Homo sapiens, UniProt P55157); assay: MTP assay (triglyceride transfer from donor to acceptor vesicles); assay type: biochemical; details: MTP activity, percent triglyceride transfer, 37° C.; read-out: pIC50 values (= −log IC50 value) (converted)
Protocol: MTP activity was measured using an assay similar to one described by J. R. Wetterau and D. B. Zilversmit in Chemistry and Physics of Lipids, 38, 205-222 (1985). To prepare the donor and acceptor vesicles, the appropriate lipids in chloroform were put into a glass test tube and dried under a stream of N2. A buffer containing 15 mM Tris-HCl pH 7.5, 1 mM EDTA, 40 mM NaCl, 0.02% NaN3 (assay buffer) was added to the dried lipid. The mixture was vortexed briefly and the lipids were then allowed to hydrate for 20 min on ice. Vesicles were then prepared by bath sonication (Branson 2200) at room temperature for maximum 15 min. Butylated hydroxytoluene was included in all vesicle preparations at a concentration of 0.1%. The lipid transfer assay mixture contained donor vesicles (40 nmol phosphatidylcholine, 7.5 mol % of cardiolipin and 0.25 mol % glycerol tri [1-^14C]-oleate), acceptor vesicles (240 nmol phosphatidylcholine) and 5 mg BSA in a total volume of 675 μl in a 1.5 ml microcentrifuge tube. Test compounds were added dissolved in DMSO (0.13% final concentration). After 5 minutes of pre-incubation at 37° C., the reaction was started by the addition of MTP in 100 μl dialysis buffer. The reaction was stopped by the addition of 400 μl DEAE-52 cellulose pre-equilibrated in 15 mM Tris-HCl pH 7.5, 1 mM EDTA, 0.02% NaN3 (1:1, vol/vol). The mixture was agitated for 4 min and centrifuged for 2 min at maximum speed in an Eppendorf centrifuge (4° C.) to pellet the DEAE-52-bound donor vesicles. An aliquot of the supernatant containing the acceptor liposomes was counted and the [^14C]-counts were used to calculate the percent triglyceride transfer from donor to acceptor vesicles.
Resulting IC50 values are enumerated in Table C.2. When the calculated IC50 was below 7, not enough data points were available at the tested concentrations to calculate an IC50 value.

Sequence of MTP (P55157 19-894, species assumed): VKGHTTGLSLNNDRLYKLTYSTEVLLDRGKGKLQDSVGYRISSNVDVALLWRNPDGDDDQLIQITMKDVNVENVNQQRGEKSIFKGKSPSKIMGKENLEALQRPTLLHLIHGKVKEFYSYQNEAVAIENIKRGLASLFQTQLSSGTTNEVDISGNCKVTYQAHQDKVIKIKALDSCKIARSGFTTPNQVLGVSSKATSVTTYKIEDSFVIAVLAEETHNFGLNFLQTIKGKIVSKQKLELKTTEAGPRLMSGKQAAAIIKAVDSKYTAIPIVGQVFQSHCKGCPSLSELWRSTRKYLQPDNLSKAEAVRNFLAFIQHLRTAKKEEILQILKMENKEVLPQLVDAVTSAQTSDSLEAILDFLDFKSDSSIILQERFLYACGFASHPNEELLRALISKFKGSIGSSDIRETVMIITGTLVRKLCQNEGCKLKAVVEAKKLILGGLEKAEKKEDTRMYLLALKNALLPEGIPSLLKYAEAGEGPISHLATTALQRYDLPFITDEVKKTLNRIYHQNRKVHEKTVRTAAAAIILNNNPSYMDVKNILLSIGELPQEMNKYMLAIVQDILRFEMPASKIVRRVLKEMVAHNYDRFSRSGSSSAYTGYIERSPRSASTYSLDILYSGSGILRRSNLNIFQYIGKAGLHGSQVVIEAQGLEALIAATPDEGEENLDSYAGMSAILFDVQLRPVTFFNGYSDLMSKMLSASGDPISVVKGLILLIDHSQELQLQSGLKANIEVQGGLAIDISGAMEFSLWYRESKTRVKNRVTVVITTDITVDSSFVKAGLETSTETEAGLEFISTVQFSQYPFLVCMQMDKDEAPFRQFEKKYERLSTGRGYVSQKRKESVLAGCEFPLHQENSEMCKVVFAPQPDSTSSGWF
Sequence of MTP (P07237 18-508 partner, species assumed): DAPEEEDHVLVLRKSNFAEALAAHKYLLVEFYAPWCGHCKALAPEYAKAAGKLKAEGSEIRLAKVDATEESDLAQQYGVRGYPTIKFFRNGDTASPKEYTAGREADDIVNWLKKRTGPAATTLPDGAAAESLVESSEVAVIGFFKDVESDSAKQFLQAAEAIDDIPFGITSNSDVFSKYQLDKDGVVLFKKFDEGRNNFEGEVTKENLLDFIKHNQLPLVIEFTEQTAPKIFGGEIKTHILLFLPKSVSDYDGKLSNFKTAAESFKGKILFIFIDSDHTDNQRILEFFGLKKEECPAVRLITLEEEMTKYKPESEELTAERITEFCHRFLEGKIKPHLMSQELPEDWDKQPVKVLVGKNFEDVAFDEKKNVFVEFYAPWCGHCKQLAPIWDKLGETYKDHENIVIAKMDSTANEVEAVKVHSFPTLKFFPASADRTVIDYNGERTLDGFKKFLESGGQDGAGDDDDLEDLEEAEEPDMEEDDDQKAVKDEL

Row | IC50 [1] [nM] | IC50 (MTP) [nM] | Structure (SMILES)
1 | 58.6 | 8.41 | CCOC(=O)CCNC(=O)CC1CCN(c2ccc(NC(=O)c3ccccc3-c3ccc(C(F)(F)F)cc3)cc2)CC1 [Compound 26]
2 |  | 39.4 | CCOC(=O)C[C@H](NC(=O)CC1CCN(c2ccc(NC(=O)c3ccccc3-c3ccc(C(F)(F)F)cc3)cc2)CC1)C(=O)OCC [Compound 36]
3 | > 1000 | > 100 | COC(=O)C1C[C@@H](O)CN1C(=O)CC1CCN(c2ccc(NC(=O)c3ccccc3-c3ccc(C(F)(F)F)cc3)cc2)CC1 (some centres unmarked) [Compound 15]
4 | > 1000 | > 100 | COC(=O)[C@@H]1CCCCN1C(=O)CC1CCN(c2ccc(NC(=O)c3ccccc3-c3ccc(C(F)(F)F)cc3)cc2)CC1 [Compound 10]
5 | > 1000 |  | CCOC(=O)[C@H](C)NC(=O)CC1CCN(c2ccc(N(C)C(=O)c3ccccc3-c3ccc(C(F)(F)F)cc3)cc2)CC1 [Compound 47]
6 | 670 |  | CCOC(=O)[C@H](C)NC(=O)CC1CCN(c2ccc(NC(=O)c3cccc(C)c3-c3ccc(C(F)(F)F)cc3)nc2)CC1 [Compound 48]
7 | 61.4 | 7.82 | COC(=O)C(C)NC(=O)CC1CCN(c2ccc(NC(=O)c3ccccc3-c3ccc(C(F)(F)F)cc3)cc2)CC1 (centres unmarked) [Compound 3]
8 | > 1000 | > 100 | CCOC(=O)[C@H]1CCCN1C(=O)CC1CCN(c2ccc(NC(=O)c3ccccc3-c3ccc(C(F)(F)F)cc3)cc2)CC1 [Compound 13]
9 | > 1000 | 12.1 | CCOC(=O)CC[C@H](NC(=O)CC1CCN(c2ccc(NC(=O)c3ccccc3-c3ccc(C(F)(F)F)cc3)cc2)CC1)C(=O)OCC [Compound 34]
10 | > 1000 | > 100 | COC(=O)[C@H](CCCN)NC(=O)CC1CCN(c2ccc(NC(=O)c3ccccc3-c3ccc(C(F)(F)F)cc3)cc2)CC1 [Compound 28]
11 | 7.03 | 10.4 | COC(=O)CNC(=O)CC1CCN(c2ccc(NC(=O)c3cccc(C)c3-c3ccc(C(F)(F)F)cc3)cc2)CC1 [Compound 43]
12 | 138 | 25.5 | CCOC(=O)C(CCSC)NC(=O)CC1CCN(c2ccc(NC(=O)c3ccccc3-c3ccc(C(F)(F)F)cc3)cc2)CC1 (centres unmarked) [Compound 7]
13 | 962 |  | CCOC(=O)[C@H](C)NC(=O)CC1CCN(c2ccc(NC(=O)c3cccc(C)c3-c3ccc(C(F)(F)F)cc3)cn2)CC1 [Compound 45]
14 | > 1000 | > 100 | CCOC(=O)[C@@H]1CCCN(C(=O)CC2CCN(c3ccc(NC(=O)c4ccccc4-c4ccc(C(F)(F)F)cc4)cc3)CC2)C1 [Compound 12]
15 | 121 | 3.37 | CCOC(=O)[C@H](NC(=O)CC1CCN(c2ccc(NC(=O)c3ccccc3-c3ccc(C(F)(F)F)cc3)cc2)CC1)c1ccccc1 [Compound 21]
16 | < 30 | 2.06 | CCOC(=O)C(C)NC(=O)CC1CCN(c2ccc(NC(=O)c3ccccc3-c3ccc(C(F)(F)F)cc3)cc2)CC1 (centres unmarked) [Compound 5]
17 | > 1000 | > 100 | CCOC(=O)C1CCN(C(=O)CC2CCN(c3ccc(NC(=O)c4ccccc4-c4ccc(C(F)(F)F)cc4)cc3)CC2)CC1 [Compound 35]
18 | < 30 | 9.31 | CCOC(=O)C(Cc1c[nH]c2ccccc12)NC(=O)CC1CCN(c2ccc(NC(=O)c3ccccc3-c3ccc(C(F)(F)F)cc3)cc2)CC1 (centres unmarked) [Compound 6]
19 | 841 | 76.7 | CCOC(=O)[C@H](Cc1ccccc1)NC(=O)CC1CCN(c2ccc(NC(=O)c3ccccc3-c3ccc(C(F)(F)F)cc3)cc2)CC1 [Compound 24]
20 | 488 | 3.11 | COC(=O)CCC(NC(=O)CC1CCN(c2ccc(NC(=O)c3cccc(C)c3-c3ccc(C(F)(F)F)cc3)cc2)CC1)C(=O)OC (centres unmarked) [Compound 54]

Row | IC50 [1] [nM] | IC50 (MTP) [nM] | Structure (SMILES)
21 | > 1000 |  | CCOC(=O)[C@@H](Cc1ccccc1)NC(=O)CC1CCN(c2ccc(NC(=O)c3ccccc3-c3ccc(C(F)(F)F)cc3)cc2)CC1 [Compound 25]
22 | 218 |  | COC(=O)[C@H](C)NC(=O)CC1CCN(c2ccc(NC(=O)c3cccc(C)c3-c3ccc(C(F)(F)F)cc3)cc2)CC1 [Compound 46]
23 | 48.5 | 41.3 | COC(=O)C(NC(=O)CC1CCN(c2ccc(NC(=O)c3ccccc3-c3ccc(C(F)(F)F)cc3)cc2)CC1)C(C)C (centres unmarked) [Compound 4]
24 | > 1000 | > 100 | COC(=O)[C@H](CCCCN)NC(=O)CC1CCN(c2ccc(NC(=O)c3ccccc3-c3ccc(C(F)(F)F)cc3)cc2)CC1 [Compound 29]
25 | > 1000 | > 100 | CCOC(=O)C1CCCCN1C(=O)CC1CCN(c2ccc(NC(=O)c3ccccc3-c3ccc(C(F)(F)F)cc3)cc2)CC1 (centres unmarked) [Compound 1]
26 |  | 10.4 | CCOC(=O)[C@H](C)NC(=O)CC1CCN(c2ccc(N(C)C(=O)c3cccc(C)c3-c3ccc(C(F)(F)F)cc3)cn2)CC1 [Compound 50]
27 | > 1000 | 81.1 | CCOC(=O)[C@H](Cc1ccc(O)cc1)NC(=O)CC1CCN(c2ccc(NC(=O)c3ccccc3-c3ccc(C(F)(F)F)cc3)cc2)CC1 [Compound 31]
28 | 74 | 3 | CCOC(=O)CC[C@@H](NC(=O)CC1CCN(c2ccc(NC(=O)c3cccc(C)c3-c3ccc(C(F)(F)F)cc3)cc2)CC1)C(=O)OCC [Compound 52]
29 | 406 | 31.6 | CCOC(=O)[C@@H]1CCCN1C(=O)CC1CCN(c2ccc(NC(=O)c3ccccc3-c3ccc(C(F)(F)F)cc3)cc2)CC1 [Compound 32]
30 | > 1000 | > 100 | COC(=O)[C@H]1CCCCN1C(=O)CC1CCN(c2ccc(NC(=O)c3ccccc3-c3ccc(C(F)(F)F)cc3)cc2)CC1 [Compound 9]
31 | > 1000 | > 100 | COC(=O)[C@@H]1C[C@H](O)CN1C(=O)CC1CCN(c2ccc(NC(=O)c3ccccc3-c3ccc(C(F)(F)F)cc3)cc2)CC1 [Compound 16]
32 | 575 | 22 | CCOC(=O)[C@H](CC(C)C)NC(=O)CC1CCN(c2ccc(NC(=O)c3ccccc3-c3ccc(C(F)(F)F)cc3)cc2)CC1 [Compound 30]
33 | 65.3 | > 1000 | CCOC(=O)C1CCCN(C(=O)CC2CCN(c3ccc(NC(=O)c4ccccc4-c4ccc(C(F)(F)F)cc4)cc3)CC2)C1 (centres unmarked) [Compound 2]
34 | 6.03 | 1.62 | COC(=O)CCNC(=O)CC1CCN(c2ccc(NC(=O)c3cccc(C)c3-c3ccc(C(F)(F)F)cc3)cc2)CC1 [Compound 55]
35 | > 1000 | > 100 | CCOC(=O)[C@H]1CCCN(C(=O)CC2CCN(c3ccc(NC(=O)c4ccccc4-c4ccc(C(F)(F)F)cc4)cc3)CC2)C1 [Compound 11]
36 | < 30 | 6.37 | CCOC(=O)[C@H](NC(=O)CC1CCN(c2ccc(NC(=O)c3ccccc3-c3ccc(C(F)(F)F)cc3)cc2)CC1)C(C)C [Compound 20]
37 | 21.1 | 1.7 | COC(=O)[C@@H](C)NC(=O)CC1CCN(c2ccc(NC(=O)c3cccc(C)c3-c3ccc(C(F)(F)F)cc3)cc2)CC1 [Compound 44]
38 | 643 | > 100 | COC(=O)[C@H](CCN)NC(=O)CC1CCN(c2ccc(NC(=O)c3ccccc3-c3ccc(C(F)(F)F)cc3)cc2)CC1 [Compound 27]
39 | 17.3 | 9.1 | CCNC(=O)[C@H](C)NC(=O)CC1CCN(c2ccc(NC(=O)c3cccc(C)c3-c3ccc(C(F)(F)F)cc3)cc2)CC1 [Compound 49]
